According to ChEMBL document CHEMBL4334512, “Rationally Designed, Conformationally Constrained Inverse Agonists of RORγt-Identification of a Potent, Selective Series with Biologic-Like in Vivo Efficacy” (J Med Chem, 2019):

How the values were obtained:
Mus musculus [1] = assay: Suppression of IL-17F RNA expression in skin region of mouse model of IL-23 induced acanthosis model of psoriasis at 3 to 30 mg/kg, po BID for 10 days measured every other day; assay type: functional
[2] = Clearance in dog at 1 mg/kg, iv; assay type: ADME, organism-based, Canis lupus familiaris; settings: in vivo
[3] = Unbound fraction in mouse serum; assay type: ADME, cell-free
[4] = Permeability across apical to basolateral side in human Caco2 cells; assay type: ADME, cell-based; settings: Caco-2, read-out: permeability
[5] = Cmax in dog at 1 mg/kg, po; assay type: ADME, organism-based, Canis lupus familiaris; set-up: dose 1 mg/kg, route oral; settings: in vivo
Mus musculus [6] = assay: Suppression of IL-17F RNA expression in skin region of mouse model of IL-23 induced acanthosis model of psoriasis at 30 mg/kg, po BID for 10 days measured every other day relative to control; assay type: functional; settings: 240 h
Mus musculus [7] = assay: Suppression of ear thickness in mouse model of IL-23 induced acanthosis model of psoriasis at 10 mg/kg, po BID for 10 days measured every other day relative to control; assay type: functional; settings: 240 h
[8] = Clearance in rat at 2 mg/kg, iv; assay type: ADME, organism-based; settings: in vivo
[9] = biological target: T1, Nuclear receptor ROR-alpha (Homo sapiens, UniProt P35398); assay: Agonist activity at RORalpha (unknown origin) by Gal4-Luc reporter gene assay
T1 sequence (P35398 whole entry): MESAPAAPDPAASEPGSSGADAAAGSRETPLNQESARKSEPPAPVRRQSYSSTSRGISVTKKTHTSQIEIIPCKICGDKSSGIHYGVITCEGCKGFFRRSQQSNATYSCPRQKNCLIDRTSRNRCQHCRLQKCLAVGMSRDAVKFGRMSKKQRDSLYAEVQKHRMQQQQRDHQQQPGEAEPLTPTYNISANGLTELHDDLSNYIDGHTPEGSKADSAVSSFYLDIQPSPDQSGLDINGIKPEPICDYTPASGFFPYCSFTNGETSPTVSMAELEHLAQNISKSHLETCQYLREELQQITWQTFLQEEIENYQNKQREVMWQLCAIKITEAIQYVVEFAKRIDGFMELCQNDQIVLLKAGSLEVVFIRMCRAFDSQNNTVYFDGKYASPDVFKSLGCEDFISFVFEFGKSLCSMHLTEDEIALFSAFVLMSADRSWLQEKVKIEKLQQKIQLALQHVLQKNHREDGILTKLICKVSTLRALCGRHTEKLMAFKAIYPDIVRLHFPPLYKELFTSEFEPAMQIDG

Mus musculus [10] = assay: Suppression of IL-22 RNA expression in skin region of mouse model of IL-23 induced acanthosis model of psoriasis at 3 mg/kg, po BID for 10 days measured every other day relative to control; assay type: functional; settings: 240 h
Mus musculus [11] = assay: Suppression of IL-22 RNA expression in skin region of mouse model of IL-23 induced acanthosis model of psoriasis at 30 mg/kg, po BID for 10 days measured every other day relative to control; assay type: functional; settings: 240 h
[12] = Cmax in mouse at 4 mg/kg, po; assay type: ADME, organism-based; set-up: dose 4 mg/kg, route oral; settings: in vivo
[13] = biological target: T2, Oxysterols receptor LXR-beta (Homo sapiens, UniProt P55055); assay: Agonist activity at LXRbeta (unknown origin) by Gal4-Luc reporter gene assay
T2 sequence (P55055 whole entry): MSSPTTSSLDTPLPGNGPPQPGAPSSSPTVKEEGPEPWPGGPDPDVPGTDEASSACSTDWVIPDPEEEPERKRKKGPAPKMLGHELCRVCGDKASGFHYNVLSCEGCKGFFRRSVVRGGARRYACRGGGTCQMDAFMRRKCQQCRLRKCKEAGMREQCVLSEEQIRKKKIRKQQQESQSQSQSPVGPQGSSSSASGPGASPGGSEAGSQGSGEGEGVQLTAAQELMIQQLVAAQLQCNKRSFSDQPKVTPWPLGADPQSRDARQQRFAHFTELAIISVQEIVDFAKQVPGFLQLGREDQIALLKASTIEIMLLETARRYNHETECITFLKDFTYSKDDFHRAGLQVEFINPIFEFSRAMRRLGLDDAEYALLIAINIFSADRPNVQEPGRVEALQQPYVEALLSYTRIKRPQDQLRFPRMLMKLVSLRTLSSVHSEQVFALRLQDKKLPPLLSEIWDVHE

[14] = biological target: T3, Nuclear receptor ROR-gamma (Mus musculus, UniProt P51450); assay: Inverse agonist activity at RORgammat in mouse cells by mTh17 assay; assay type: cell-based
T3 sequence (P51450 whole entry): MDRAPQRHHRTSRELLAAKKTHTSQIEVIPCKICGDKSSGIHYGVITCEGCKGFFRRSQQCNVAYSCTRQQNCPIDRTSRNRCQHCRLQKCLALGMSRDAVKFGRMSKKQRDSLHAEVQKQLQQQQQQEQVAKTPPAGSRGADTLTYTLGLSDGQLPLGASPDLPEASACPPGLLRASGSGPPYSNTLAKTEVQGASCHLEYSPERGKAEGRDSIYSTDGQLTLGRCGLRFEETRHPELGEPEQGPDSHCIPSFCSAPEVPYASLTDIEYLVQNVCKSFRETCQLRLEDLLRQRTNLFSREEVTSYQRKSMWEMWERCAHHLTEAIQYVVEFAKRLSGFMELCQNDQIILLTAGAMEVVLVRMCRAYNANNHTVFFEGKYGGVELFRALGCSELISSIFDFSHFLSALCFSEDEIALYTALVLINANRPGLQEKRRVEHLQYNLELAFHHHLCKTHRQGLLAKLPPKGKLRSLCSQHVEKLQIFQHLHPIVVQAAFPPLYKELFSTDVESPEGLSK

[15] = biological target: T4, Nuclear receptor ROR-beta (Homo sapiens, UniProt Q92753); assay: Agonist activity at RORbeta (unknown origin) by Gal4-Luc reporter gene assay
T4 sequence (Q92753 whole entry): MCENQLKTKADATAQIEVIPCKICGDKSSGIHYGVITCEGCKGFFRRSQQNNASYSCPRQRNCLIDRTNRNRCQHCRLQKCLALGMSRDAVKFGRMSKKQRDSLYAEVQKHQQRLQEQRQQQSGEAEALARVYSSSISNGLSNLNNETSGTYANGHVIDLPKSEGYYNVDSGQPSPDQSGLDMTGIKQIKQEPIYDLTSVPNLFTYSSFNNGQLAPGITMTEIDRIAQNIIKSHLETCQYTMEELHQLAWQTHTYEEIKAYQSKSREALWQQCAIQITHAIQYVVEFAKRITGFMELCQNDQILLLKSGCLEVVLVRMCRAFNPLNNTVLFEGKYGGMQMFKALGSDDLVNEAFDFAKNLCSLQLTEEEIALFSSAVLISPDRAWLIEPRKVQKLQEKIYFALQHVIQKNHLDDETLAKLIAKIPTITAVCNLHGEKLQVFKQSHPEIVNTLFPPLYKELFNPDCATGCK

[16] = biological target: T2, Oxysterols receptor LXR-beta; assay: Activity at LXRbeta (unknown origin)

O=C(N1CC[C@@]2(S(=O)(=O)c3ccc(F)cc3)c3ccc(C(F)(C(F)(F)F)C(F)(F)F)cc3CC[C@@H]12)C1(O)CCS(=O)(=O)CC1
Activity (Mus musculus [1]): Dose-dependent effect
ED50 (Mus musculus [1]; 240 h): 3 mg/kg
clearance [2]: 0.35 mL/min/kg
fraction unbound [3]: 0.007
Papp A→B [4]: 13 ×10⁻⁶ cm/s
Cmax [5]: 700 nM
inhibition in vivo at 30 mg/kg (Mus musculus [6]): 85%
inhibition in vivo at 10 mg/kg (Mus musculus [7]): 51%
clearance [8]: 3.7 mL/min/kg
EC50 [9]: > 10 µM
inhibition in vivo at 3 mg/kg (Mus musculus [10]): 76%
inhibition in vivo at 30 mg/kg (Mus musculus [11]): 97%
Cmax [12]: 2200 nM
EC50 [13]: > 7.5 µM
EC50 [14]: 0.013 µM
EC50 [15]: > 10 µM
IC50 [16]: > 10 µM
